In PMC6710338, “Turning a Collagenesis-Inducing Peptide Into a Potent Antibacterial and Antibiofilm Agent Against Multidrug-Resistant Gram-Negative Bacteria” (Frontiers in Microbiology, 2019) one finds MIC and IC50 data, which are given here for eight molecules.

Read-outs that look alike come from different tables or passages of the source. Square brackets hold non-standard residues; d marks the D form. Peptide text beside a SMILES is read from it. * marks the point of attachment. Palmitoyl = CCCCCCCCCCCCCCCC(=O)*; βAla = NCCC(=O)O

Assay [1] relates to E. faecalis ATCC 29212. As to the kind of experiment: MIC, broth microdilution (CLSI), ATCC reference strain. The format is cell-based, Enterococcus faecalis. The protocol: (§1) The minimum inhibitory concentration (MIC) of synthetic peptides was determined using the broth microdilution method in cation-adjusted Mueller-Hinton broth (MHB2 – Sigma-Aldrich, St. Louis, MO, United States), according to the recommendations of the Clinical and Laboratory Standards Institute ([CLSI, 2012]), against four reference strains, namely, P. aeruginosa ATCC 27853, E. coli ATCC 25922, S. aureus ATCC 25923 and Enterococcus faecalis ATCC 29212. MIC values of peptide 3.1-PP4 were also determined against MDR clinical isolates of P. aeruginosa (PA002, PA004, Pa3, Pa4), E. coli (Ec1, Ec2, EC001, EC002, EC003) and K. pneumoniae (KP004, KP007, KP010). The peptides were tested in the concentration range of 1–1024 μg/mL. The minimum bactericidal concentration (MBC) was determined as previously reported ([Bessa et al., 2018]). According to CLSI guidelines for antimicrobial susceptibility testing, MIC values were determined for all peptides against ATCC reference strains of two Gram-positive (S. aureus ATCC 25923 and E. faecalis ATCC 29212), and two Gram-negative (P. aeruginosa ATCC 27853 and E. coli ATCC 25922) bacterial species, and are shown in Table 2.

For assay [2], the system named is S. aureus ATCC 25923. The assay is described as above. The format is cell-based, Staphylococcus aureus. As to the method:
as §1

Assay [3] relates to HFF-1 cells. The format is cell-based, human. The protocol:
Immortalized human foreskin fibroblasts (HFF-1) were grown as a monolayer from passage number 8–16. For routine maintenance, HFF-1 cells were cultured in Dulbecco’s Modified Eagle Medium (DMEM, from Cell Lines Service) supplemented with 15% fetal bovine serum (FBS, from CLS) and 1% antibiotic/antimycotic solution (100 units/mL of penicillin, 100 μg/mL of streptomycin and 0.25 μg/mL of amphotericin B, from Sigma-Aldrich, St. Louis, MO, United States) at 37°C in an humidified atmosphere with 5% CO2. Cells were harvested by trypsinization [0.25% (w/v) trypsin-EDTA4Na, Sigma-Aldrich, St. Louis, MO, United States] twice a week.
The cytotoxicity of synthetic peptides to HFF-1 cells was evaluated using the standard MTT assay. Briefly, cells were seeded at a density of 8 × 10^4 cells/well onto 96-well plate and incubated at 37°C in a 5% CO2 atmosphere. Cells were allowed to grow for 48 h, and serially diluted peptide solutions (0.78–100 μM) were added to the wells. Then, cells were incubated for 72 h at 37°C, after which wells were washed once with phosphate buffered saline (PBS, Sigma-Aldrich, St. Louis, MO, United States), followed by addition of a 0.45 mg/mL MTT solution to each well. Crystals were allowed to form for 1.5 h. Reaction was stopped by rejecting the medium and addition of dimethylsulfoxide (DMSO, Sigma-Aldrich, St. Louis, MO, United States). Absorbance was read at 570 nm (Biotek PowerWave XS).
At the end of the cytotoxicity assays, the number of viable cells was never below that of initially plated cells. As such, data are represented as peptide concentrations causing 50% growth inhibition (IC50) on HFF-1 cells, rather than as lethal dosis values. IC50 values thus obtained are also included in Table 2.

Assay [4] relates to E. coli ATCC 25922. As to the kind of experiment: MIC, broth microdilution (CLSI), ATCC reference strain. The class given is cell-based, Escherichia coli. As to the method:
as §1

Assay [5] has as its system P. aeruginosa ATCC 27853. The assay is described as above. The class given is cell-based, Pseudomonas aeruginosa. As to the method: as §1
Where [6] appears, read: E. faecalis ATCC 29212, broth microdilution in MHB2, CLSI, range tested 1–1024 μg/mL.
Where [7] appears, read: S. aureus ATCC 25923, broth microdilution in MHB2, CLSI, range tested 1–1024 μg/mL.
Where [8] appears, read: E. coli ATCC 25922, broth microdilution in cation-adjusted Mueller-Hinton broth (MHB2), CLSI, range tested 1–1024 μg/mL.
Where [9] appears, read: P. aeruginosa ATCC 27853, broth microdilution in MHB2, CLSI, range tested 1–1024 μg/mL.

`C[C@@H](O)[C@H](NC(=O)[C@@H](NC(=O)[C@@H](N)CCCCN)[C@@H](C)O)C(=O)N[C@@H](CCCCN)C(=O)N[C@@H](CO)C(N)=O` [PP4, reference compound] (H-KTTKS-NH2): the MIC in assay [1] (ATCC 29212), in assay [2] (ATCC 25923), in assay [4] (ATCC 25922) and in assay [5] (ATCC 27853) was over 1820 µM in each case. For the same molecule, the IC50 in assay [3] (72 h) is over 100 µM.

In the case of `CC(C)C[C@H](NC(=O)[C@H](CC(C)C)NC(=O)[C@H](CCCCN)NC(=O)[C@H](CC(C)C)NC(=O)[C@H](CC(C)C)NC(=O)[C@H](Cc1c[nH]c2ccccc12)NC(=O)[C@H](CCCCN)NC(=O)[C@H](CC(C)C)NC(=O)[C@H](CC(C)C)NC(=O)[C@H](CCCCN)NC(=O)[C@H](CCCCN)NC(=O)[C@H](CO)NC(=O)[C@H](CCCCN)NC(=O)[C@@H](NC(=O)[C@@H](NC(=O)[C@@H](N)CCCCN)[C@@H](C)O)[C@@H](C)O)C(N)=O` [PP4-3.1] (H-KTTKSKKLLKWLLKLL-NH2), the minimal inhibitory concentration (MIC) was determined as 8 µM in assay [1] (ATCC 29212), 4 µM in assay [2] (ATCC 25923), 2 µM in assay [4] (ATCC 25922) and 1 µM in assay [5] (ATCC 27853). The molecule also came in with an IC50 in assay [3] (72 h) of 25 ± 2 µM.

As to `CC(C)C[C@H](NC(=O)[C@H](CC(C)C)NC(=O)[C@H](CCCCN)NC(=O)[C@H](CC(C)C)NC(=O)[C@H](CC(C)C)NC(=O)[C@H](Cc1c[nH]c2ccccc12)NC(=O)[C@H](CCCCN)NC(=O)[C@H](CC(C)C)NC(=O)[C@H](CC(C)C)NC(=O)[C@H](CCCCN)NC(=O)[C@H](CCCCN)NC(=O)CCNC(=O)[C@H](CO)NC(=O)[C@H](CCCCN)NC(=O)[C@@H](NC(=O)[C@@H](NC(=O)[C@@H](N)CCCCN)[C@@H](C)O)[C@@H](C)O)C(N)=O` [PP4-β-ala-3.1] (H-KTTKS[βAla]KKLLKWLLKLL-NH2), the MIC was found to be 4 µM in assay [1] (ATCC 29212), 4 µM in assay [2] (ATCC 25923), 2 µM in assay [4] (ATCC 25922) and 2 µM in assay [5] (ATCC 27853). Further, in assay [3] (72 h), the IC50 was found to be 24 ± 2 µM.

For the molecule `CC(C)C[C@H](NC(=O)[C@H](CC(C)C)NC(=O)[C@H](CCCCN)NC(=O)[C@H](CC(C)C)NC(=O)[C@H](CC(C)C)NC(=O)[C@H](Cc1c[nH]c2ccccc12)NC(=O)[C@H](CCCCN)NC(=O)[C@H](CC(C)C)NC(=O)[C@H](CC(C)C)NC(=O)[C@H](CCCCN)NC(=O)[C@@H](N)CCCCN)C(N)=O` [Peptide 3.1, reference compound] (H-KKLLKWLLKLL-NH2), the MIC in assay [1] (E. faecalis ATCC 29212, broth microdilution in MHB2, CLSI, value in parentheses) was 3 to 6 µM; in assay [2] (S. aureus ATCC 25923, broth microdilution in MHB2, CLSI, value in parentheses) it was 3 µM; in assay [4] (E. coli ATCC 25922, broth microdilution in MHB2, CLSI, value in parentheses), 6 µM; in assay [5] (P. aeruginosa ATCC 27853, broth microdilution in MHB2, CLSI, value in parentheses), 3 µM. In assay [3] (50% growth inhibition, MTT, 72 h incubation at 37°C, 0.78–100 μM, absorbance 570 nm, read-out: IC50 ± SEM on HFF-1 cells), the IC50 amounted to 50 ± 3 µM.

Regarding `CCCCCCCCCCCCCCCC(=O)N[C@@H](CCCCN)C(=O)N[C@@H](CCCCN)C(=O)N[C@@H](CC(C)C)C(=O)N[C@@H](CC(C)C)C(=O)N[C@@H](CCCCN)C(=O)N[C@@H](Cc1c[nH]c2ccccc12)C(=O)N[C@@H](CC(C)C)C(=O)N[C@@H](CC(C)C)C(=O)N[C@@H](CCCCN)C(=O)N[C@@H](CC(C)C)C(=O)N[C@@H](CC(C)C)C(=O)N[C@@H](CCCCN)C(=O)N[C@H](C(=O)N[C@H](C(=O)N[C@@H](CCCCN)C(=O)N[C@@H](CO)C(N)=O)[C@@H](C)O)[C@@H](C)O` [Peptide C16-3.1-PP4] (Palmitoyl-KKLLKWLLKLLKTTKS-NH2), the MIC was 30 to 59 µM in assay [1] (ATCC 29212); 64 to 128 µg/mL in assay [1] (setting [6]); 59 µM in assay [2] (ATCC 25923); 128 µg/mL in assay [2] (setting [7]); 29 µM in assay [4] (ATCC 25922); 64 µg/mL in assay [4] (setting [8]). For the same molecule, the figures for the minimum inhibitory concentration (MIC) in assay [5] (ATCC 27853) and in assay [5] (setting [9]) were 29 µM and 64 µg/mL, respectively. Further, the IC50 in assay [3] (72 h) is 17.8 ± 0.5 µM.

For `CCCCCCCCCCCCCCCC(=O)N[C@@H](CCCCN)C(=O)N[C@@H](CCCCN)C(=O)N[C@@H](CC(C)C)C(=O)N[C@@H](CC(C)C)C(=O)N[C@@H](CCCCN)C(=O)N[C@@H](Cc1c[nH]c2ccccc12)C(=O)N[C@@H](CC(C)C)C(=O)N[C@@H](CC(C)C)C(=O)N[C@@H](CCCCN)C(=O)N[C@@H](CC(C)C)C(=O)N[C@@H](CC(C)C)C(N)=O` [Peptide C16-3.1] (Palmitoyl-KKLLKWLLKLL-NH2), the MIC in assay [1] (ATCC 29212) was 256 µg/mL; in assay [2] (ATCC 25923) it was over 627 µM; in assay [2] (setting [7]), over 1024 µg/mL; in assay [4] (ATCC 25922) it was 78.4 µM; in assay [4] (setting [8]), 128 µg/mL; in assay [5] (ATCC 27853) it was 78.4 µM. The molecule further came in with an MIC in assay [5] (setting [9]) of 128 µg/mL. Further, the IC50 in assay [3] (72 h) was 23.4 ± 0.7 µM.

For the molecule `CCCCCCCCCCCCCCCC(=O)N[C@@H](CCCCN)C(=O)N[C@H](C(=O)N[C@H](C(=O)N[C@@H](CCCCN)C(=O)N[C@@H](CO)C(N)=O)[C@@H](C)O)[C@@H](C)O` [Peptide C16-PP4, reference compound] (Palmitoyl-KTTKS-NH2), the 50% inhibitory concentration (IC50) in assay [3] (72 h) was over 100 µM.

With `CCCCCCCCCCCCCCCC(=O)N[C@@H](CCCCN)C(=O)N[C@H](C(=O)N[C@H](C(=O)N[C@@H](CCCCN)C(=O)N[C@@H](CO)C(=O)N[C@@H](CCCCN)C(=O)N[C@@H](CCCCN)C(=O)N[C@@H](CC(C)C)C(=O)N[C@@H](CC(C)C)C(=O)N[C@@H](CCCCN)C(=O)N[C@@H](Cc1c[nH]c2ccccc12)C(=O)N[C@@H](CC(C)C)C(=O)N[C@@H](CC(C)C)C(=O)N[C@@H](CCCCN)C(=O)N[C@@H](CC(C)C)C(=O)N[C@@H](CC(C)C)C(N)=O)[C@@H](C)O)[C@@H](C)O` [Peptide C16-PP4-3.1] (Palmitoyl-KTTKSKKLLKWLLKLL-NH2), the MIC in assay [1] (ATCC 29212) was 29 µM; in assay [1] (setting [6]), 64 µg/mL; in assay [2] (ATCC 25923), 29 µM; in assay [2] (setting [7]), 64 µg/mL; in assay [4] (ATCC 25922), 15 µM; in assay [4] (setting [8]), 32 µg/mL. Moreover, the MIC in assay [5] (ATCC 27853) stood at 29 µM; in assay [5] (setting [9]) it was 64 µg/mL. The molecule also gave an IC50 in assay [3] (72 h) of 4.98 ± 0.08 µM.
